The text below walks through data of article PMC11173529, “Structure–Activity Relationship Studies in a Series of Xanthine Inhibitors of SLACK Potassium Channels” (Molecules, 2024).

The target of the assay is T1, KV2.1 (Homo sapiens, UniProt Q14721).
T1 construct: expressed in transfected cells; host or cells: HEK293
T1 sequence (Q14721 1-858): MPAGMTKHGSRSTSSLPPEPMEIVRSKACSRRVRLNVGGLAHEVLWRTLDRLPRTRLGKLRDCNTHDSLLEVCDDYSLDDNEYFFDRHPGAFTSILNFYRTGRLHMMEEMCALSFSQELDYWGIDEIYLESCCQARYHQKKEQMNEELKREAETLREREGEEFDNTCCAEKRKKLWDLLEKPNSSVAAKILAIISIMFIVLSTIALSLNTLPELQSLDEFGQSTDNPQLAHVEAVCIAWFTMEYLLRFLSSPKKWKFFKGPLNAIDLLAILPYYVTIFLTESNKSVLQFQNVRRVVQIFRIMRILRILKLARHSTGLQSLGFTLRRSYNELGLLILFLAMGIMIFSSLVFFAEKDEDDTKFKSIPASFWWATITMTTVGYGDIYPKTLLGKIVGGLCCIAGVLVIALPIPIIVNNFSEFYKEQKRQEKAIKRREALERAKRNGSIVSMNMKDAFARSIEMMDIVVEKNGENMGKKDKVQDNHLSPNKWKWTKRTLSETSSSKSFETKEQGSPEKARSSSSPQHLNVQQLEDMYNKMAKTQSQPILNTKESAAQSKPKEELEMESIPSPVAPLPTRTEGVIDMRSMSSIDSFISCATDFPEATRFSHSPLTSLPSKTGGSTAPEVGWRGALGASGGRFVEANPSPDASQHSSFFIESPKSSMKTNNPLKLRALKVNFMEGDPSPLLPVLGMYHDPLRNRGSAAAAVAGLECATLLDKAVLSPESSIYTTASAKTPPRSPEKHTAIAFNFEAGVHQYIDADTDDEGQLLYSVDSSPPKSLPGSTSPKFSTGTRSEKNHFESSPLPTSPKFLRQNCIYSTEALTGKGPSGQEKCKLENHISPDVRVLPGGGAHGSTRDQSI
As to the kind of experiment: Tl+-flux selectivity panel in HEK-293 cells: KV2.1. The format is cell-based. Particulars: HEK293, 10 µM test compound, relative to control guangxitoxin 1E, read-out: Percent Inhibition ± SEM. As to the method:
With a handful of analogs that offered improved SLACK potency relative to hit compound 8, we next proceeded to investigate the ancillary pharmacology of such compounds, both with respect to other Slo family members as well as versus a spectrum of diverse ion channels (Table 5). Thus, we screened four compounds (32, 48, 70, and 71) at 10 µM in our in-house selectivity panel of Tl^+-flux assays in HEK-293 cells stably expressing the target of interest. […] Some valuable SAR was noted as well. […] Reduction of inhibition at Maxi-K α1/β4 also followed. This SAR will be important to bear in mind for continued optimization within this series. […] Of particular note is the lack of significant hERG activity in this series, as activity versus that counter-target has been an issue with other SLACK inhibitors.
Stably transfected monoclonal HEK293 cell lines expressing Slick, Maxi-K α1/β3, Maxi-K α1/β4, CaV3.2, GIRK 1/2, KV2.1, KV7.2, NaV1.7, and TASK-1 were generated as previously described. Stably transfected monoclonal HEK293 cell lines expressing hERG were generated as previously described. CHO-K1 cells expressing human Slack and disease-associated human Slack mutations, G288S and A934T, were generated by transfecting a PiggyBac TRE mammalian expression vector (VectorBuilder, Chicago, IL, USA) containing KCNT1. FuGENE 6 (Promega, Madison, WI, USA) transfection reagent and protocol, together with Opti-MEM (Thermo Fisher Scientific, Walkham, MA, USA), were utilized.
The Tl^+ flux assays were conducted as previously described with modifications optimized for individual cell lines as described below. Following removal of cell culture media, cells were loaded with Tl^+-sensitive dye loading solution containing Thallos-AM (ION Biosciences, San Marcos, TX, USA), 1.25 mM Probenecid, and 0.3% Pluronic F-127 (MilliporeSigma, Burlington, MA, USA), in assay buffer comprised of Hanks Balanced Salt Solution (HBSS) (Thermo Fisher Scientific, Waltham, MA, USA) and 20 mM HEPES (Corning, Corning, NY, USA) at room temperature for one-hour. Dye loading solution was replaced with 20 μL/well of assay buffer prior to assaying. Cell plates were then loaded onto a Panoptic kinetic imaging plate reader (WaveFront Biosciences, Franklin, TN, USA). Data were acquired at 5 Hz (excitation 482 ± 35 nm, emission 536 ± 40 nm) for 10 s, at which time 20 μL/well of test compounds in assay buffer at 2-fold above the desired final concentration was added and allowed to incubate for 120 s. Next, 10 μL/well of Tl^+ stimulus buffer (129 mM Na gluconate, 1.2 mM CaSO4, 1 MgSO4, 1 mM Na2HPO4, 4.17 mM NaHCO3, 5.56 mM glucose, 2.5 mM Tl2SO4, and 10 mM HEPES pH 7.3) was added. Imaging was concluded after an additional 120 s.
The inhibition is how much of the control response was suppressed. Consider `COc1cccc(Cn2c(=O)c3c(nc(N(C)Cc4ccccc4)n3C)n(C)c2=O)c1` [Analog 32], for which the inhibition at 10 µM turned out to be 51 ± 1.5%. To `CN(Cc1cccc(F)c1)c1nc2c(c(=O)n(Cc3ccccc3)c(=O)n2C)n1C` [Analog 48] belongs 51 ± 1.2%. To `CCCCN(Cc1ccccc1)c1nc2c(c(=O)n(Cc3ccccc3)c(=O)n2C)n1C` [Analog 70] belongs 35 ± 1.3%. On to `Cn1c(N(Cc2ccccc2)CC2CC2)nc2c1c(=O)n(Cc1ccccc1)c(=O)n2C` [Analog 71], for which the inhibition at 10 µM came out at 33 ± 1.2%.
